Assay results from article PMC3263330 (2011).
Numbering of substitutions follows the chain as printed.

What was measured:
[1] = target: T1, aryl hydrocarbon receptor (mAhR) (Mus musculus, UniProt P30561, S359A); test: [3H]TCDD specific binding, hydroxyapatite assay
T1 sequence (P30561 10-848 S359A): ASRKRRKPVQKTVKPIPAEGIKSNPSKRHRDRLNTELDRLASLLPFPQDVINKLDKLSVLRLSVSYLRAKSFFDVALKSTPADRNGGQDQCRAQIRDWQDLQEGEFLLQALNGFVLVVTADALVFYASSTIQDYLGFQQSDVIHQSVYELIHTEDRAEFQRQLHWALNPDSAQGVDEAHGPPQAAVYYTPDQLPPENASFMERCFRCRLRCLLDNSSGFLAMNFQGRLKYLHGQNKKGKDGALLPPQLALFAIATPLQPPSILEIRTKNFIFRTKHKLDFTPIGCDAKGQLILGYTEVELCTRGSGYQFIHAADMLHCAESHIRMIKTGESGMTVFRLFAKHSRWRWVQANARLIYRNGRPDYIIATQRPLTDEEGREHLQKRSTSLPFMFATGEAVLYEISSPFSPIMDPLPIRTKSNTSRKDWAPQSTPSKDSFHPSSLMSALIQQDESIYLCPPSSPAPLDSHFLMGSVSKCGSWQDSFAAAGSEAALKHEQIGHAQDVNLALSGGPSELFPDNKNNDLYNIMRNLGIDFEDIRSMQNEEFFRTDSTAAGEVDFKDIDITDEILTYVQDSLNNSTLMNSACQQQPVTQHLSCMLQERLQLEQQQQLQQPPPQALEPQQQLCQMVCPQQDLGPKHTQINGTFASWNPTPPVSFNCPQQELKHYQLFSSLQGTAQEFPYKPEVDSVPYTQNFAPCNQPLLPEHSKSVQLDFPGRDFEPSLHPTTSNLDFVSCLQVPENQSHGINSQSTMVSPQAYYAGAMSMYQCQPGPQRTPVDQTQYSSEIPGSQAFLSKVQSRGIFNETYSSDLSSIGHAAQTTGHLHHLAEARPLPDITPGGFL

[2] = target: T2, aryl hydrocarbon receptor (mAhR) (Mus musculus, UniProt P30561); test: [3H]TCDD; format: binding
T2 sequence (P30561 10-848): T1 sequence (P30561 10-848 S359A) with A350S

[3] = target: T2, aryl hydrocarbon receptor (mAhR); test: competitive [3H]TCDD hydroxyapatite radioligand binding assay; conditions: read-out: Experimental IC50 (M), in vitro synthesized mAhR

Structure (SMILES) | % reduction of binding vs wild type [1] | [3H]TCDD (2 nM) specific binding, hydroxyapatite assay [2] | IC50 [3] [M]
Clc1cc2c(cc1Cl)Oc1cc(Cl)c(Cl)cc1O2 [TCDD, 2,3,7,8-tetrachlorodibenzo-p-dioxin] | ~ 40 % reduction of binding vs wild type | THS compounds displace [^3H]TCDD from the in vitro synthesized AhR in concentration-dependent manner. | –
O=[N+]([O-])c1cc(C(F)(F)F)ccc1NCc1ccco1 [THS-020] | – | – | 4.2e-06
